# Test results: PMC5762315, “Inhibition of polo-like kinase 4 (PLK4): a new therapeutic option for rhabdoid tumors and pediatric medulloblastoma” (Oncotarget, 2017)
# Values joined by “and” are separate entries in the source; they are usually repeats but may differ in a detail not shown here. Equal values may be shown once.
# Columns and labels:
# Experiment in all cases: biochemical
# Assay type in all cases: biochemical
# various kinases [1] = biological target: various kinases (Homo sapiens, UniProt Q96SB4); conditions: kinase SRPK1; ZLYTE
# Chain of various kinases (Homo sapiens, UniProt Q96SB4) (Q96SB4 whole entry): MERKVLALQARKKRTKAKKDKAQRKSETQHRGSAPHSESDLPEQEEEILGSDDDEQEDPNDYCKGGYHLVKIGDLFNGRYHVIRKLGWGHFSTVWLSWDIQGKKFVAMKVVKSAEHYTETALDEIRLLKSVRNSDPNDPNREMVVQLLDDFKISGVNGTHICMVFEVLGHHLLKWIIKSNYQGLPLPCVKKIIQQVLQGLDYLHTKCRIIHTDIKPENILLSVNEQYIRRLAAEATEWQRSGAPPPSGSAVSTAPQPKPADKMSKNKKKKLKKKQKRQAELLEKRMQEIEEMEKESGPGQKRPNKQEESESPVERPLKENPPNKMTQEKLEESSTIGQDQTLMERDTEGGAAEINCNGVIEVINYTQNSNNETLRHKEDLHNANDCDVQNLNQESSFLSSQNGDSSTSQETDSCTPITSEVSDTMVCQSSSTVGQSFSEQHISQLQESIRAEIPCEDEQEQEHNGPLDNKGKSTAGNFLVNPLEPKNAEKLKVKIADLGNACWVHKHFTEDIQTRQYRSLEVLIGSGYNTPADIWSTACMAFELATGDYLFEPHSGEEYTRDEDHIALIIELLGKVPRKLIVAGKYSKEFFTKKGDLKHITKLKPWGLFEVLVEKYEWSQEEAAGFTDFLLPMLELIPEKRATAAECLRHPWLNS
# various kinases [2] = biological target: various kinases (Homo sapiens, UniProt P78362); conditions: kinase SRPK2; ZLYTE
# Chain of various kinases (Homo sapiens, UniProt P78362) (P78362 whole entry): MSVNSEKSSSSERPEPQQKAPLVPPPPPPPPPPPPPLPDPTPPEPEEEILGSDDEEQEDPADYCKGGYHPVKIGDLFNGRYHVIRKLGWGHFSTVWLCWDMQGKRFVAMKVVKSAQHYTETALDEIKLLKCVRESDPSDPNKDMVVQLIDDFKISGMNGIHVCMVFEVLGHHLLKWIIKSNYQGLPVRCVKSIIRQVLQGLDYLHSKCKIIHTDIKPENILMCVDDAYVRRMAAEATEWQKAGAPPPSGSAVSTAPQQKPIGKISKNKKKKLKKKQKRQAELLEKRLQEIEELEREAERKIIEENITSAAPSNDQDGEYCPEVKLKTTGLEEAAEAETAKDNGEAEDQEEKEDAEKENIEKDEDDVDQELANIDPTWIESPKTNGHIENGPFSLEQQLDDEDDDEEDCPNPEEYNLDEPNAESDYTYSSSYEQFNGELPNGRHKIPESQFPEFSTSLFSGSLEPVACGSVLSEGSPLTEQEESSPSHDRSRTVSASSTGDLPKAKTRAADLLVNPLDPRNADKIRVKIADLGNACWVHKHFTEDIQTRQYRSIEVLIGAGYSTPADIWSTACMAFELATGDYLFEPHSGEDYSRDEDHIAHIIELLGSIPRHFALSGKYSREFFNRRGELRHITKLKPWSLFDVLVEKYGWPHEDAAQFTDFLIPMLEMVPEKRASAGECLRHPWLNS
# various kinases [3] = biological target: various kinases (Homo sapiens, UniProt P23458); conditions: JAK1
# various kinases [4] = biological target: various kinases (Homo sapiens, UniProt O14757); conditions: CHEK1 (CHK1)
# various kinases [5] = biological target: various kinases (Homo sapiens, UniProt P49674); conditions: CSNK1E (CK1 epsilon)
# various kinases [6] = biological target: various kinases (Homo sapiens, UniProt P23443); conditions: kinase RPS6KB1 (p70S6K); ZLYTE
# Chain of various kinases (Homo sapiens, UniProt P23443) (P23443 whole entry): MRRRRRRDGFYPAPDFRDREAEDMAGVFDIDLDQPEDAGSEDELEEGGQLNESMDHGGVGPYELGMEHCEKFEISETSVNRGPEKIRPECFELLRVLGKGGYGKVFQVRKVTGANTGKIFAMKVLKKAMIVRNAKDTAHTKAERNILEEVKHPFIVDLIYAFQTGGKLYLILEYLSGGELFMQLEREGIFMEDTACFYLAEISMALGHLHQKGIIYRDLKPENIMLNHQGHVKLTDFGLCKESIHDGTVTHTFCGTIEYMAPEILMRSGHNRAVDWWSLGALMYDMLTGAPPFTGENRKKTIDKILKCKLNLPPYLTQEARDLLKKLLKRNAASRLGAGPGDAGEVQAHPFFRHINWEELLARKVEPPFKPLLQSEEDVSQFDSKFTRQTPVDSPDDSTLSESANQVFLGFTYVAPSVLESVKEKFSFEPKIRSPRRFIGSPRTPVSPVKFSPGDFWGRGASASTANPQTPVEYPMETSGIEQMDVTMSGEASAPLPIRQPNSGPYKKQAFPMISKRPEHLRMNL
# various kinases [7] = biological target: various kinases (Homo sapiens, UniProt P07948); conditions: LYN A
# various kinases [8] = biological target: various kinases (Homo sapiens, UniProt P21802); conditions: FGFR2
# various kinases [9] = biological target: various kinases (Homo sapiens, UniProt P16591); conditions: FER
# Chain of various kinases (Homo sapiens, UniProt P16591) (P16591 whole entry): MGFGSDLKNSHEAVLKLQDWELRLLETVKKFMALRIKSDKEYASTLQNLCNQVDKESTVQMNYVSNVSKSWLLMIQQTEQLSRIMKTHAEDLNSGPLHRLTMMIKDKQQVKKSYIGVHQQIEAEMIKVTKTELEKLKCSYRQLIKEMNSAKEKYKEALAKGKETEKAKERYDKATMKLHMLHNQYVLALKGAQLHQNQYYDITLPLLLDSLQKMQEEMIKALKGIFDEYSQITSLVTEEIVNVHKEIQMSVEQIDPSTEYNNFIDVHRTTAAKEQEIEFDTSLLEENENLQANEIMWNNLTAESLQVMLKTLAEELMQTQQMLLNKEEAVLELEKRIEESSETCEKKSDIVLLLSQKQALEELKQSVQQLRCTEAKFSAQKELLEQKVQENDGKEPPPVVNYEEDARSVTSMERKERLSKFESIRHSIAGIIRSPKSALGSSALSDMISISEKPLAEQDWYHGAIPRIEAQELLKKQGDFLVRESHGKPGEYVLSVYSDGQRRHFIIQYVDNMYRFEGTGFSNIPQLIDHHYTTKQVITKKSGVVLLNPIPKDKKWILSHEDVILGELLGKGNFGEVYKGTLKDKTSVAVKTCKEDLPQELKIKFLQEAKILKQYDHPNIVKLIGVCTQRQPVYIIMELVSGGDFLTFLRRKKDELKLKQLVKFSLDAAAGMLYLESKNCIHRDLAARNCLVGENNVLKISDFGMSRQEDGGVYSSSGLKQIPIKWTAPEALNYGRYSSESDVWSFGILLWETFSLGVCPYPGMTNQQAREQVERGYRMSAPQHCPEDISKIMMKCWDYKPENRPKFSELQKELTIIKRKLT
# various kinases [10] = biological target: various kinases (Homo sapiens, UniProt P22607, V555M); conditions: FGFR3 V555M
# various kinases [11] = biological target: T1, various kinases (Homo sapiens, UniProt P51817); conditions: kinase PRKX; ZLYTE
# T1 sequence (P51817 1-358): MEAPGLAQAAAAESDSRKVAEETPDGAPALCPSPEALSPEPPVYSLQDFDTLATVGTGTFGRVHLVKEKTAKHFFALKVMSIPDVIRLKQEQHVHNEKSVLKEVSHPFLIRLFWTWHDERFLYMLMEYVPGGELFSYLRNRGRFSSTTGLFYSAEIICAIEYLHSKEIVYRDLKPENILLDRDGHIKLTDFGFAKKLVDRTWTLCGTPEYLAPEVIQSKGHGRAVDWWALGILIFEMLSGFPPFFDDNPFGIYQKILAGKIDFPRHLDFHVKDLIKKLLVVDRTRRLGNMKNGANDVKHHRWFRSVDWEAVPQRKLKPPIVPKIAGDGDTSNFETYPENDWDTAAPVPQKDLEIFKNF
# various kinases [12] = biological target: various kinases (Homo sapiens, UniProt P00533, G719C); conditions: EGFR (ErbB1) G719C
# Chain of various kinases (Homo sapiens, UniProt P00533, G719C) (P00533 25-1210 G719C): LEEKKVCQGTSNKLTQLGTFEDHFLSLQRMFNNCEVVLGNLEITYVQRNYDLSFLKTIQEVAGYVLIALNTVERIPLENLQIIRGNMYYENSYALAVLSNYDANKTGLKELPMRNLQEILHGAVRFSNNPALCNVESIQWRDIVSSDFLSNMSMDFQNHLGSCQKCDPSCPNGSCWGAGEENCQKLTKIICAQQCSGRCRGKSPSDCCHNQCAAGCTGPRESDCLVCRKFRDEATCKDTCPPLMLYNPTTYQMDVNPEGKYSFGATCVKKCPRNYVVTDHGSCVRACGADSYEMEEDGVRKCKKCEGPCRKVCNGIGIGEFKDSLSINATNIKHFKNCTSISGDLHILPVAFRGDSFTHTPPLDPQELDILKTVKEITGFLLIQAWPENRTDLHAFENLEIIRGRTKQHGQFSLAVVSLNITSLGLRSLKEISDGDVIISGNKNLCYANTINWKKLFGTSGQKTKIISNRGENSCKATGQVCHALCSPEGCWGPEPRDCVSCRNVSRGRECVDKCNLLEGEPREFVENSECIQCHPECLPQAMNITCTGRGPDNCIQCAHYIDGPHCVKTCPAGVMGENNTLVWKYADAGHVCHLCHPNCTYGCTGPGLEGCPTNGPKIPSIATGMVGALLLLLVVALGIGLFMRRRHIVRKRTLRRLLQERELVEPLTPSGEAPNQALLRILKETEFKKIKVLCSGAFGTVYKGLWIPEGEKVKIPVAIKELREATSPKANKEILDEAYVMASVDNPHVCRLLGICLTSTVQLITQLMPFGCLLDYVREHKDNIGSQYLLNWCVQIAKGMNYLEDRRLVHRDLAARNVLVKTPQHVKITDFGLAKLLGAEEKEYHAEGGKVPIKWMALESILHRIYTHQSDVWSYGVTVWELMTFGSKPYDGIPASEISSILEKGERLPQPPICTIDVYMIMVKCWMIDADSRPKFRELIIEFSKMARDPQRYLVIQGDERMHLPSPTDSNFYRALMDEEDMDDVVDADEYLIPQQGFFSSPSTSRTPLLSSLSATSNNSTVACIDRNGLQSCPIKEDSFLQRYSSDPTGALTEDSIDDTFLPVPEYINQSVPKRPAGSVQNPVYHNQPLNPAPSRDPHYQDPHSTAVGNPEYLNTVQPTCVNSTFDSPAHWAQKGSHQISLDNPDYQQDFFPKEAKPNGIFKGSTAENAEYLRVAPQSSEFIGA
# various kinases [13] = biological target: various kinases (Homo sapiens, UniProt P52564); conditions: MAP2K6 (MKK6)
# Chain of various kinases (Homo sapiens, UniProt P52564) (P52564 whole entry): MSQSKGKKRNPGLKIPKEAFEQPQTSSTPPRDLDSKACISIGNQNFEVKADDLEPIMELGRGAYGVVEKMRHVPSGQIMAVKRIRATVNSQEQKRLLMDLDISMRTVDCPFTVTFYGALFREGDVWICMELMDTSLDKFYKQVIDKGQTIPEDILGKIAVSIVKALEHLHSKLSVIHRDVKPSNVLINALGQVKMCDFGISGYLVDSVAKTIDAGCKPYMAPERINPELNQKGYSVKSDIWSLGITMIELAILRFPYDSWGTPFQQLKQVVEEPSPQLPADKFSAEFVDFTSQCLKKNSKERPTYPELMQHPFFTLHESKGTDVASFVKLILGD
# various kinases [14] = biological target: various kinases (Homo sapiens, UniProt Q7KZI7); conditions: MARK2
# various kinases [15] = biological target: various kinases (Homo sapiens, UniProt P17948); conditions: FLT1 (VEGFR1)
# various kinases [16] = biological target: various kinases (Homo sapiens, UniProt P31751); conditions: AKT2 (PKB beta)
# various kinases [17] = biological target: various kinases (Homo sapiens, UniProt Q06187); conditions: BTK
# various kinases [18] = biological target: various kinases (Homo sapiens, UniProt P22607, K650E); conditions: FGFR3 K650E
# various kinases [19] = biological target: various kinases (Homo sapiens, UniProt P16234, T674I); conditions: PDGFRA T674I
# various kinases [20] = biological target: T2, various kinases (Homo sapiens, UniProt Q13976); conditions: kinase PRKG1; ZLYTE
# T2 sequence (Q13976 1-671): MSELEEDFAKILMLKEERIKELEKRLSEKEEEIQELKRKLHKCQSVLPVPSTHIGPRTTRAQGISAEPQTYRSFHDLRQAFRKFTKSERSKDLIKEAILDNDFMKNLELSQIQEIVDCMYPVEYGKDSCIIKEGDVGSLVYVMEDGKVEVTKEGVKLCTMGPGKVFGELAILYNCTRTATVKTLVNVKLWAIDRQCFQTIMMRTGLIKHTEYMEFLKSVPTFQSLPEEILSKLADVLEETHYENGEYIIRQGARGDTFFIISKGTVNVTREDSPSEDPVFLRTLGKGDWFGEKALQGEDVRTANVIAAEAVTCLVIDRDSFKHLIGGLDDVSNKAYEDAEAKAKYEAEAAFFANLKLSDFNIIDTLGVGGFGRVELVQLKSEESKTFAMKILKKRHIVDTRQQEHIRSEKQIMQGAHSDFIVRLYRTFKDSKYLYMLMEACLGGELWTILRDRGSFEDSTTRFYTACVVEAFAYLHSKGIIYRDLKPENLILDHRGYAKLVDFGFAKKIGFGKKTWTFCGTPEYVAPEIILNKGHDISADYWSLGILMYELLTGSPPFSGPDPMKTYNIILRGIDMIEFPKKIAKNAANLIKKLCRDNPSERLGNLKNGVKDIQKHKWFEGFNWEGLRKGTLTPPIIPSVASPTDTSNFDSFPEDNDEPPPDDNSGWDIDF
# various kinases [21] = biological target: various kinases (Homo sapiens, UniProt Q00537); conditions: CDK17/cyclin Y
# various kinases [22] = biological target: various kinases (Homo sapiens, UniProt P54756); conditions: EPHA5
# various kinases [23] = biological target: various kinases (Homo sapiens, UniProt Q9P286); conditions: PAK7 (KIAA1264)
# Chain of various kinases (Homo sapiens, UniProt Q9P286) (Q9P286 whole entry): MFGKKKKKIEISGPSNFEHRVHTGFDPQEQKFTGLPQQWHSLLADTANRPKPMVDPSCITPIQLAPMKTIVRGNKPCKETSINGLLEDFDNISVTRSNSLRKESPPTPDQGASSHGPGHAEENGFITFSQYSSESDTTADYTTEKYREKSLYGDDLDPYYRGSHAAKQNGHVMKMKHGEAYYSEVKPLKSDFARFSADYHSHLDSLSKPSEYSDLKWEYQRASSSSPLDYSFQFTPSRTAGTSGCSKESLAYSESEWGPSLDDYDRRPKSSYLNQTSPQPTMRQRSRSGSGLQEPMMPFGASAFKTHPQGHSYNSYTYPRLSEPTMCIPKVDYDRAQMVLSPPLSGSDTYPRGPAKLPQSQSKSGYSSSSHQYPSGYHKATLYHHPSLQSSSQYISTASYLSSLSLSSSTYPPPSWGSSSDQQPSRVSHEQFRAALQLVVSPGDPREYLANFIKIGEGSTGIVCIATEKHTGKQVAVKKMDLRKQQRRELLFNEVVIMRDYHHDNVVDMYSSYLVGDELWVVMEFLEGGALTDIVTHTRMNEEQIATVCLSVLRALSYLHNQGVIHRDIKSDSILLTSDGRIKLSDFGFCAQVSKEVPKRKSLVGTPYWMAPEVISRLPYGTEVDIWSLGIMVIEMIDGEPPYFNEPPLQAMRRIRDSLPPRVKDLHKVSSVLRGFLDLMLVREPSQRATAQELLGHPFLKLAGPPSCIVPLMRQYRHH
# various kinases [24] = biological target: various kinases (Homo sapiens, UniProt P17612); conditions: kinase PRKACA (PKA); ZLYTE
# various kinases [25] = biological target: various kinases (Homo sapiens, UniProt P51957); conditions: NEK4
# Wherever % Inhibition Average is given: test concentration or dose not given here.
# Wherever % Inhibition Duplicate #1 is given: test concentration or dose not given here.
# Wherever % Inhibition Duplicate #2 is given: test concentration or dose not given here.
compound,measurement,setting,value
COc1ccc2c(c1)[C@]1(C[C@H]1c1ccc3c(/C=C/c4ccc(CN5C[C@@H](C)O[C@@H](C)C5)cc4)n[nH]c3c1)C(=O)N2 [CFI-400945],% Inhibition Average,various kinases [1],5%
same,% Inhibition Duplicate #1,various kinases [1],6%
same,% Inhibition Duplicate #2,various kinases [1],3%
same,% Inhibition Average,various kinases [2],7%
same,% Inhibition Duplicate #1,various kinases [2],10%
same,% Inhibition Duplicate #2,various kinases [2],4%
same,% Inhibition,various kinases [3],1% and 0%
same,% Inhibition,various kinases [4],9% and 11%
same,% Inhibition,various kinases [5],7% and 6%
same,% Inhibition Average,various kinases [6],7%
same,% Inhibition Duplicate #1,various kinases [6],6%
same,% Inhibition Duplicate #2,various kinases [6],8%
same,% Inhibition,various kinases [7],11% and 14%
same,% Inhibition,various kinases [8],55% and 58%
same,% Inhibition,various kinases [9],7% and 11%
same,% Inhibition,various kinases [10],56%
same,% Inhibition Average,various kinases [11],5%
same,% Inhibition Duplicate #1,various kinases [11],6%
same,% Inhibition Duplicate #2,various kinases [11],4%
same,% Inhibition,various kinases [12],3% and 2%
same,% Inhibition,various kinases [13],4% and -2%
same,% Inhibition,various kinases [14],7% and 2%
same,% Inhibition,various kinases [15],0% and 1%
same,% Inhibition,various kinases [16],3%
same,% Inhibition,various kinases [17],6% and 3%
same,% Inhibition,various kinases [18],38% and 44%
same,% Inhibition,various kinases [19],1% and 2%
same,% Inhibition Average,various kinases [20],5%
same,% Inhibition Duplicate #1,various kinases [20],6%
same,% Inhibition Duplicate #2,various kinases [20],4%
same,% Inhibition,various kinases [21],-1% and 8%
same,% Inhibition,various kinases [22],8% and 5%
same,% Inhibition,various kinases [23],9% and 13%
same,% Inhibition Average,various kinases [24],3%
same,% Inhibition Duplicate #1,various kinases [24],4%
same,% Inhibition Duplicate #2,various kinases [24],2%
same,% Inhibition,various kinases [25],3% and 1%
